In ChEMBL document CHEMBL1133357, “Inhibition of neuraminidase with neuraminic acid C-glycosides” (Bioorg Med Chem Lett, 2000):

Experiment: The compound was tested for its inhibitory activity against bacterial neuraminidase
Set-up: species or system Clostridium perfringens

Row | SMILES | Ki [µM]
1 | CC(=O)N[C@H]1C(C(O)C(O)CO)O[C@](C(=O)O)(C(C)(C)O)C[C@H]1O (stereo not given in full) | 29
2 | CC(=O)NC1C(O)CC(C(=O)O)([C@H](O)C2C(O)C(CO)OC(OC(=O)c3ccccc3)C2O)OC1C(O)C(O)CO (stereo not given in full) | 229
3 | CC(=O)NC1C(O)CC(C(=O)O)([C@@H](O)C2C(O)C(CO)OC(OC(=O)c3ccccc3)C2O)OC1C(O)C(O)CO (stereo not given in full) | 110
4 | CCCCCCCC(O)[C@]1(C(=O)O)C[C@@H](O)[C@@H](NC(C)=O)C(C(O)C(O)CO)O1 (stereo not given in full) | 16
5 | COC1OC(CO)C(O)C([C@@H](O)C2(C(=O)O)CC(O)C(NC(C)=O)C(C(O)C(O)CO)O2)C1O (stereo not given in full) | > 1000
